Source: patent publication US20050014647A1, “Method and composition for determining resistance to an acetohydroxy-acid synthase inhibitor” (priority 2001, published 2005)
Where “and” joins values, the source holds several entries; their conditions need not be identical. Identical values can stand only once.

Key:
Type in all cases: cell-based
AHAS [1] = assay: in vivo AHAS assay, canola leaf discs with external supplement
AHAS [2] = assay: in vivo AHAS assay, rice leaf discs with external supplement
Method: (§1) The procedure for the preparation of an in vivo AHAS assay is described below:
(§2) For the experiments, plants are grown from seed in soil in a greenhouse. Most experiments used wild type and imidazolinone resistant varieties of wheat, canola, rice, sunflower, and maize.
(§3) For the assay, a a microtiter plate is set up with 100 μl of one of the following solutions in each well: • a. […] Plant., 15 473-497 (1962)); 500 μM CPCA (cyclopropyldicarboxylic acid); • b. Solution B: Solution A+alanine (or other supplements); • c. Solution C: Solution A+a pyruvate salt (or other supplements).
(§4) Plant material is excised from the newest emerging, rapidly growing leaf or stem from the test plant and placed in one of the microtiter plates. Usually, 5 mm leaf discs are cut from the newest emerging leaf. At least 2 discs per plant are cut. One disc is put in a well with Solution A and the other disc in a well with one of the other Solutions B or C (what solution are you using for background?).
(§5) After all wells in the microtiter plate contain plant material, the plate is covered with the microtiter plate cover and the plate with material is placed in a chamber with continuous fluorescent lights for 12 to 16 hours. The incubation is stopped by placing the plate in −20° C. freezer. After tissue and solutions freeze, the plate is thawed at room temperature and 25 μL of 5% sulfuric acid are added to each well. After incubation at 60° C. for 15 minutes, 175 μL of a freshly prepared mixture of α-naphthol (2.5%) and creatine (0.25%) in 2 N NaOH are added to each well and the plate is incubated at 60° C. for 15 minutes.
(§6) 200 μL from each well are transferred to a new plate and OD530 on microtiter plate is readed by a spectrophotometer.

AHAS [3] = assay: in vivo AHAS assay, wheat leaf discs with external supplement; conditions: 14 hours
Method: as §1, §2
(§7) For the assay, a a microtiter plate is set up with 100 μl of one of the following solutions in each well: • a. Solution A: 10 mM phosphate buffer, pH 6; 10% Murashige and Skoog basal mineral salts (according to Murashige, T. and Skoog, F., Physiol. Plant., 15 473-497 (1962)); 500 μM CPCA (cyclopropyldicarboxylic acid); • b. Solution B: Solution A+alanine (or other supplements); • c. Solution C: Solution A+a pyruvate salt (or other supplements).
as §4, with “background?). […]” for “background?).”
as §6

AHAS [4] = assay: in vivo AHAS assay, sunflower leaf discs with external supplement; conditions: 14 hours
Method: as §1, §2, §3, §4, §5, §6

AHAS [5] = assay: in vivo AHAS assay, canola leaf discs with external supplement; conditions: for % of No Alaninor Pyruvate: Pyruvate 0 mM
Method: as §1, §2, §7, §4, §5, §6

AHAS [6] = assay: in vivo AHAS assay, maize leaf discs with external supplement
Method: as §1, §2, §3, §4, §5, §6

[7] = alanine 1.000 % vs 0.000 %, 14 hours
[8] = alanine 1.000 %, 14 hours, 500 μM CPCA
[9] = canola, Alanine (100 mM), replicates 1-3, 14 hours

In the case of C[C@H](N)C(=O)O [Alanine, L-alanine], the “Ratio (Ala/No Ala)” value (AHAS [1]; pH 4, 14 hours) is reported as 2.78, the “in vivo AHAS activity, Alanine (%) 1” value (AHAS [1]; pH 7, alanine 1 %, 14 hours) is reported as 2.299 and the “Ratio (Ala/No Ala)” value (AHAS [2]; [7]) is reported as 7.0. For the same compound, the “OD 530” value (AHAS [2]; [8]) was 1.257, the “Ratio (Ala/No Ala)” value (AHAS [2]; pH 4, 14 hours) was 2.83 and the “in vivo AHAS activity, Alanine (%) 1” value (AHAS [2]; pH 4, alanine 1 %, 14 hours) was 0.903. The “Ratio (Ala/No Ala)” value (AHAS [2]; pH 5, 14 hours) was 3.57, the “in vivo AHAS activity, Alanine (%) 1” value (AHAS [2]; pH 5, alanine 1 %, 14 hours) was 0.731 and the “Ratio (Ala/No Ala)” value (AHAS [2]; pH 6, 14 hours) was 3.65. For the same compound, the “in vivo AHAS activity, Alanine (%) 1” value (AHAS [2]; pH 6, alanine 1 %, 14 hours) was 0.639, the “Ratio (Ala/No Ala)” value (AHAS [2]; pH 7, 14 hours) was 3.31 and the “in vivo AHAS activity, Alanine (%) 1” value (AHAS [2]; pH 7, alanine 1 %, 14 hours) was 0.58. The “Ratio (Ala/No Ala)” value (AHAS [3]; alanine 1.000 % vs 0.000 %) was 2.1, the “OD 530” value (AHAS [3]; alanine 1.000 %, 500 μM CPCA) was 0.832 and the “Ratio (Ala/No Ala)” value (AHAS [4]; Sunflower, alanine 1.000 % vs 0.000 %) was 3.8. The “OD 530” value (AHAS [4]; Sunflower, alanine 1.000 %, 500 μM CPCA) was 1.857, the “Ratio (Ala/No Ala)” value (AHAS [4]; Sunflower, pH 4) was 4.67 and the “in vivo AHAS activity, Alanine (%) 1” value (AHAS [4]; Sunflower, pH 4) was 1.682. The “Ratio (Ala/No Ala)” value (AHAS [4]; Sunflower, pH 5) was 3.62, the “in vivo AHAS activity, Alanine (%) 1” value (AHAS [4]; Sunflower, pH 5) was 0.745 and the “Ratio (Ala/No Ala)” value (AHAS [4]; Sunflower, pH 6) was 5.20. For the same compound, the “in vivo AHAS activity, Alanine (%) 1” value (AHAS [4]; Sunflower, pH 6) was 0.843, the “Ratio (Ala/No Ala)” value (AHAS [4]; Sunflower, pH 7) was 4.10 and the “in vivo AHAS activity, Alanine (%) 1” value (AHAS [4]; Sunflower, pH 7) was 0.48. The “OD 530” value (AHAS [4]; sunflower, 1% Alanine, disc size 0.25 cm^2, 7 discs) was 1.861, the “OD 530” value (AHAS [4]; sunflower, 1% Alanine, disc size 0.56 cm^2, 3 discs) was 0.695 and the “OD 530” value (AHAS [4]; sunflower, 1% Alanine, disc size 0.82 cm^2, 2 discs) was 0.646. The “OD 530” value (AHAS [4]; sunflower, 1% Alanine, disc size 1.76 cm^2, 1 disc) was 0.447, the “Ratio (Ala/No Ala)” value (AHAS [5]; Canola, alanine 1.000 % vs 0.000 %, 14 hours) was 5.4 and the “OD 530” value (AHAS [5]; Canola, alanine 1.000 %, 14 hours, 500 μM CPCA) was 2.838. For the same compound, the “in vivo AHAS activity, Alanine (%) 1” value (AHAS [5]; Canola, pH 4, alanine 1 %, 14 hours) was 2.271, the “Ratio (Ala/No Ala)” value (AHAS [5]; Canola, pH 5, 14 hours) was 2.94 and the “in vivo AHAS activity, Alanine (%) 1” value (AHAS [5]; Canola, pH 5, alanine 1 %, 14 hours) was 2.383. The “Ratio (Ala/No Ala)” value (AHAS [5]; Canola, pH 6, 14 hours) was 3.12, the “in vivo AHAS activity, Alanine (%) 1” value (AHAS [5]; Canola, pH 6, alanine 1 %, 14 hours) was 2.036 and the “Ratio (Ala/No Ala)” value (AHAS [5]; Canola, pH 7, 14 hours) was 2.38. The “Increased Activity (%)” value (AHAS [5]; canola 45A71, alanine 0.063 % compared with no alanine) was 150%, the “OD 530” value (AHAS [5]; canola 45A71, alanine 0.063 %, pH 6, 14 hours) was 0.785 and the “Increased Activity (%)” value (AHAS [5]; canola 45A71, alanine 0.125 % compared with no alanine) was 182%. For the same compound, the “OD 530” value (AHAS [5]; canola 45A71, alanine 0.125 %, pH 6, 14 hours) was 0.955, the “Increased Activity (%)” value (AHAS [5]; canola 45A71, alanine 0.25 % compared with no alanine) was 181% and the “OD 530” value (AHAS [5]; canola 45A71, alanine 0.25 %, pH 6, 14 hours) was 0.946. The “Increased Activity (%)” value (AHAS [5]; canola 45A71, alanine 0.5 % compared with no alanine) was 198%, the “OD 530” value (AHAS [5]; canola 45A71, alanine 0.5 %, pH 6, 14 hours) was 1.038 and the “Increased Activity (%)” value (AHAS [5]; canola 45A71, alanine 1 % compared with no alanine) was 262%. For the same compound, the “OD 530” value (AHAS [5]; canola 45A71, alanine 1 %, pH 6, 14 hours) was 1.373, the “Increased Activity (%)” value (AHAS [5]; canola 45A71, alanine 2 % compared with no alanine) was 290% and the “OD 530” value (AHAS [5]; canola 45A71, alanine 2 %, pH 6, 14 hours) was 1.518. The “Increased Activity (%)” value (AHAS [5]; canola 45A71, alanine 4 % compared with no alanine) was 190%, the “OD 530” value (AHAS [5]; canola 45A71, alanine 4 %, pH 6, 14 hours) was 0.997 and the “Increased Activity (%)” value (AHAS [5]; canola Westar, alanine 0.063 % compared with no alanine) was 195%. For the same compound, the “OD 530” value (AHAS [5]; canola Westar, alanine 0.063 %, pH 6, 14 hours) was 0.978, the “Increased Activity (%)” value (AHAS [5]; canola Westar, alanine 0.125 % compared with no alanine) was 177% and the “OD 530” value (AHAS [5]; canola Westar, alanine 0.125 %, pH 6, 14 hours) was 0.885. For the same compound, the “Increased Activity (%)” value (AHAS [5]; canola Westar, alanine 0.25 % compared with no alanine) was 239%, the “OD 530” value (AHAS [5]; canola Westar, alanine 0.25 %, pH 6, 14 hours) was 1.197 and the “Increased Activity (%)” value (AHAS [5]; canola Westar, alanine 0.5 % compared with no alanine) was 229%. The “OD 530” value (AHAS [5]; canola Westar, alanine 0.5 %, pH 6, 14 hours) was 1.149, the “Increased Activity (%)” value (AHAS [5]; canola Westar, alanine 1 % compared with no alanine) was 396% and the “OD 530” value (AHAS [5]; canola Westar, alanine 1 %, pH 6, 14 hours) was 1.983. For the same compound, the “Increased Activity (%)” value (AHAS [5]; canola Westar, alanine 2 % compared with no alanine) was 250%, the “OD 530” value (AHAS [5]; canola Westar, alanine 2 %, pH 6, 14 hours) was 1.25 and the “Increased Activity (%)” value (AHAS [5]; canola Westar, alanine 4 % compared with no alanine) was 201%. For the same compound, the “OD 530” value (AHAS [5]; canola Westar, alanine 4 %, pH 6, 14 hours) was 1.009, the “% of No Alaninor Pyruvate” value (AHAS [5]; canola, Alanine 0.5 %, 14 hours) was 144% and the “% of No Alaninor Pyruvate” value (AHAS [5]; canola, Alanine 1 %, 14 hours) was 174%. For the same compound, the “% of 0/0” value (AHAS [5]; [9]) was 129% and 104% and 100%, the “OD 530, Avg. of the treated discs” value (AHAS [5]; [9]) was 1.538 and 1.574 and 1.298 and the “OD 530, Treated” value (AHAS [5]; canola, Alanine (100 mM), single treated discs, replicates 1-3, 14 hours) was 1.529 and 1.487 and 1.335 and 1.760 and 1.691 and 1.551 and 1.498 and 1.571 and 1.007. For the same compound, the “Ratio (Ala/No Ala)” value (AHAS [6]; [7]) was 1.7, the “OD 530” value (AHAS [6]; [8]) was 0.203 and the “Ratio (Ala/No Ala)” value (AHAS [6]; pH 4, 14 hours) was 1.89. For the same compound, the “in vivo AHAS activity, Alanine (%) 1” value (AHAS [6]; pH 4, alanine 1 %, 14 hours) was 0.909, the “Ratio (Ala/No Ala)” value (AHAS [6]; pH 5, 14 hours) was 3.50 and the “in vivo AHAS activity, Alanine (%) 1” value (AHAS [6]; pH 5, alanine 1 %, 14 hours) was 0.847. For the same compound, the “Ratio (Ala/No Ala)” value (AHAS [6]; pH 6, 14 hours) was 5.71, the “in vivo AHAS activity, Alanine (%) 1” value (AHAS [6]; pH 6, alanine 1 %, 14 hours) was 1.033 and the “Ratio (Ala/No Ala)” value (AHAS [6]; pH 7, 14 hours) was 4.32. For the same compound, the “in vivo AHAS activity, Alanine (%) 1” value (AHAS [6]; pH 7, alanine 1 %, 14 hours) was 1.128.
